{"source": "patent US20130224151A1", "about": "“Use of FAAH Inhibitors for Treating Abdominal, Visceral and Pelvic Pain” (UNITED STATES OF AMERICA, priority 2010, published 2013)", "key": {"[1]": {"test_system": "Male Sprague Dawley (SD) rats", "assay": "Cortagine-induced visceral hypersensitivity to colorectal distension", "type": "in vivo, rat", "description": "Male Sprague Dawley (SD) rats (250-275 g, Harlan Labs, Indianapolis, Ind.) were kept under standard conditions of humidity and temperature and a 12-hour light/dark cycle (lights on 6.00 a.m.). Animals were group housed and had access to food ad libitum. Prior to the start of studies, animals were acclimatized to handling and administration of treatments (oral syringe feeding and subcutaneous injection). At the end of the experiments, animals were sacrificed by CO2 gas inhalation followed by thoracotomy or isoflurane anesthesia followed by decapitation with appropriate approved animal protocols.\nOn the day of the experiments, rats were injected intraperitoneally (IP) with cortagine (10 μg/kg, 0.8 ml/kg in DMSO/cremophor/isotonic saline (1:1:8 v:v:v). Cortagine, a selective corticotropin releasing factor receptor 1 (CRF1) agonist, prepared as described previously (Rivier et al. J. Med. Chem. 2007: 50:1668-1674), was stored in a powder form at −80° C. and prepared in sterile water (12.5 μg/ml) immediately before use. This dose had previously been established to show a significant increase in defecation, induction of diarrhea and increase in colonic motility, permeability and visceral pain in rats. (Larauche et al. Am. J. Physiol. Gastrointest. Liver Physiol. 2009: 297:G215-G227)\nFAAH inhibitor compounds URB597 [3′-(aminocarbonyl)biphenyl-3-yl cyclohexyl carbamate], compound A and compound B were formulated as suspensions in DMSO/cremophor/isotonic saline (1:1:8 v:v:v). The concentration of the respective dosing FAAH inhibitor compound suspensions were 6 mg/ml for 30 mg/kg dose of compound A or compound B; 2 mg/ml for the 10 mg/kg dose of compound B; and 1.5 mg/ml for the 3 mg/kg dose of URB597. Compound A, compound B or vehicle treatment was administered to rats by per os (PO) route at dose-volume of 5 ml/kg. URB597 treatment was administered to rats by subcutaneous (SC) route at dose volume of 2 ml/kg. The vehicle for the PO route was DMSO/cremophor/isotonic saline (1:1:8 v:v:v). Vehicle (PO), URB597 (SC), compound A and compound B (PO) were administered to non-fasted rats, restrained by hand. The regimen of administration of URB597, compound A and compound B involved one delivery (PO or SC) performed 120 min before IP injection of cortagine.\nVisceral pain was assessed using a non-invasive pressure transducer system referred to as “sensor balloon” as previously described (Larauche et al. Am. J. Physiol. Gastrointest. Liver Physiol. 2009: 297:G215-G227; Ness et al. Brain Res. 1988: 450:153-169). Briefly, in adult non-fasted SD rats, a 4-5 cm “sensor balloon” lubricated with surgical lubricant (Surgilube, Fougera, Melville) was inserted intra-anally under brief isoflurane anesthesia. The “sensor balloon” was positioned such that its distal end was 1 cm proximal to the anal verge and secured in place by tapping the balloon catheter to the tail. Rats were placed individually in Boolman's cage and allowed to recover from anesthesia and habituation. The colorectal procedure was performed using the Distender Series Ilir dual barostat (G&J Electronics Inc, Toronto, Ontario). The CRD protocol consisted of 2 CRD at 60 mmHg to unfold the balloon followed by 2 sets of CRD at 10, 20, 40 and 60 mmHg, 20 s duration, 4-min inter-stimulus interval. The intra-luminal colonic pressure (ICP) was recorded for 20 s before, during and after termination of CRD. […]"}, "Female Wistar rats": {"test_system": "Female Wistar rats", "assay": "Partial restraint stress-induced hyperalgesia model", "type": "in vivo, rat", "settings": "3 mg/kg or 10 mg/kg SC one hour prior to 2 h PRS, CRD 15 minutes after PRS", "protocol": "Female Wistar rats surgically prepared for electromyography as described in Example 1 were used to evaluate the effects of the FAAH inhibitors (a) compound A or (b) compound B, on colorectal sensitivity and compliance after a 2 hour partial restraint stress session.\nPartial restraint stress (PRS), a relatively mild stress, was induced as previously described (Morteau et al. Dig. Dis. Sci. 1994: 39:1239-48; “Guanylate cyclase C-mediated antinociceptive effects of linaclotide in rodent models of visceral pain”, Eutamene H, Bradesi S, Larauche M, Theodorou V, Beaufrand C, Ohning G, Fioramonti J, Cohen M, Bryant A P, Kurtz C, Currie M G, Mayer E A, Bueno L, Neurogastroenterology and motility —2010 Volume: 22 p. 312-322; “Stress-induced changes in intestinal transit in the rat: a model for irritable bowel syndrome”, Williams C L, Villar R G, Peterson J M, Burks T F, Gastroenterology—1988 p. 611-21). Female rats were lightly anesthetized with diethyl ether and their shoulders, upper forelimbs and thoracic trunk were wrapped in a confining harness of paper tape to restrict, but not prevent body movements. Control sham-stress animals were anesthetized but not wrapped. […]\nRats were treated orally with compound A (30 mg/kg in DMSO/cremophor/isotonic saline (1:1:8 v:v:v), n=8), or vehicle only (DMSO/cremophor/isotonic saline (1:1:8 v:v:v), 1 mL, n=9) with or without 2 hour PRS sessions. The number of abdominal contractions was recorded by electromyography per 5-minute period (y axis) for each distension pressure of 0 mmHg, 15 mmHg, 30 mmHg, 45 mmHg and 60 mmHg (x axis); the ? symbols represent the results for the control+vehicle group (n=9); the symbols ? represent the results for the stress+vehicle group (n=9); the symbols ? represent the results for the stress+compound A group (n=8). Data are mean values with SEM.\nRats were treated orally with compound B (30 mg/kg in DMSO/cremophor/isotonic saline (1:1:8 v:v:v), n=9), or vehicle only (DMSO/cremophor/isotonic saline (1:1:8 v:v:v), 1 mL, n=9) with or without 2 hour PRS sessions. The number of abdominal contractions was recorded by electromyography per 5-minute period (y axis) for each distension pressure of 0 mmHg, 15 mmHg, 30 mmHg, 45 mmHg and 60 mmHg (x axis); the symbols ? represent the results for the control+vehicle group (n=9); the symbols ? represent the results for the stress+vehicle group (n=9); and the symbols ? represent the results for the stress+compound B group (n=9). Data are mean values with SEM.\nThe effect of FAAH inhibitor URB597 was tested at 3 mg/kg and 10 mg/kg in the PRS model of visceral hyperalgesia essentially as described in Examples 1 and 2. URB597 was formulated as a suspension in vehicle [DMSO/cremophor/isotonic saline (1:1:8 v:v:v)]. […]"}, "[2]": {"settings": "3 mg/kg SC 2 h before cortagine"}, "[3]": {"settings": "3 mg/kg SC 2 h before cortagine, n=11"}, "[4]": {"settings": "3 mg/kg SC 2 h before cortagine, normalized to baseline VMR at 60 mmHg"}}, "note": "“Also recorded” adds a separate entry of the source."}
{"smiles": "NC(=O)c1cccc(-c2cccc(OC(=O)NC3CCCCC3)c2)c1", "note": "[URB597, 3′-(aminocarbonyl) biphenyl-3-yl cyclohexyl carbamate, reference compound]", "values": [{"measurement": "% hypersensitive rats at 40 mmHg", "setting": "[1]; [2]", "value": 55, "unit": "%"}, {"measurement": "rats with increased VMR over baseline between 0 and 50% at 60 mmHg", "setting": "[1]; [2]", "value": 18, "unit": "%"}, {"measurement": "rats with increased VMR over baseline between 51 and 100% at 60 mmHg", "setting": "[1]; [2]", "value": 9, "unit": "%"}, {"measurement": "rats with increased VMR over baseline over 101% at 60 mmHg", "setting": "[1]; [2]", "value": 9, "unit": "%"}, {"measurement": "effect on cortagine-induced visceral hypersensitivity to CRD", "setting": "[1]; 3 mg/kg SC 2 h before cortagine 10 μg/kg IP, 40 and 60 mmHg", "value": "abolished the visceral hypersensitivity; also recorded: prevented the visceral hypersensitivity"}, {"measurement": "rats presenting a decrease in VMR compared to baseline at 60 mmHg", "setting": "[1]; [3]", "value": 64, "unit": "%"}, {"measurement": "rats presenting an increased VMR over baseline (% hypersensitive rats) at 60 mmHg", "setting": "[1]; [3]", "value": 36, "unit": "%"}, {"measurement": "VMR to CRD at 40 mmHg", "setting": "[1]; [4]", "value": "81.89±16.38", "unit": "%"}, {"measurement": "VMR to CRD at 60 mmHg", "setting": "[1]; [4]", "value": "97.62±20.02", "unit": "%"}, {"measurement": "VMR versus vehicle/cortagine rats at 60 mmHg CRD", "setting": "[1]; second trial, URB597 3 mg/kg SC 2 h before cortagine IP, n=7, p<0.001", "value": "significant differences"}, {"measurement": "antihyperalgesic effects in the cortagine model of visceral pain", "setting": "[1]; summary statement referring to Example 3", "value": "did exhibit antihyperalgesic effects"}, {"measurement": "number of abdominal contractions (antihyperalgesic effect) in PRS model", "setting": "Female Wistar rats", "value": "did not exhibit an antihyperalgesic effects"}, {"measurement": "number of abdominal contractions (antihyperalgesic effect) in PRS model", "setting": "Female Wistar rats; listed as URB-597", "value": "no differences in number of abdominal contractions were observed"}]}
